Experimental data published in patent EP0554004A2, “Cephem compounds and antibacterial agents” (KATAYAMA SEIYAKUSYO CO. Ltd., priority 1992, dated 1993).
≈ marks a conversion by molar mass, not a printed value.

Columns and labels:
[1] = test system: Bacillus subtilis ATCC 6633; experiment: MIC against standard strains (Test Example 1); assay type: cell-based; conditions: ATCC6633, Muller-Hinton agar, 37°C overnight
How it was run: (§1)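 MIC values are the minimum agent concentrations that prevented bacterial growth on Mueller-Hinton agar after overnight incubation at 37°C. Inocula contained 1 x 10^6 CFU/ml, prepared from overnight Mueller-Hinton broth cultures grown at 37°C.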

[2] = test system: Citrobacter freundii ATCC 8090; experiment: MIC against standard strains (Test Example 1); assay type: cell-based; conditions: ATCC8090, Muller-Hinton agar, 37°C overnight
How it was run: as §1

[3] = test system: Enterobacter cloacae ATCC 13407; experiment: MIC against standard strains (Test Example 1); assay type: cell-based; conditions: ATCC13407, Muller-Hinton agar, 37°C overnight
How it was run: as §1

[4] = test system: Escherichia coli CSH2 (RE45); experiment: MIC against standard strains (Test Example 1); assay type: cell-based
How it was run: (§2)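 Overnight 37°C Mueller-Hinton broth cultures → 1 x 10^6 CFU/ml inoculum → Mueller-Hinton agar plates with compound → overnight, 37°C → MIC = minimum concentration with no growth.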

[5] = test system: Escherichia coli CSH2 (RK1); experiment: MIC against standard strains (Test Example 1); assay type: cell-based
How it was run: as §2

[6] = test system: Escherichia coli NIHJ JC-2; experiment: MIC against standard strains (Test Example 1); assay type: cell-based; conditions: NIHJJC2, Muller-Hinton agar, 37°C overnight
How it was run: as §1

[7] = test system: Klebsiella pneumoniae IFO 3317; experiment: MIC against standard strains (Test Example 1); assay type: cell-based; conditions: IFO3317, Muller-Hinton agar, 37°C overnight
How it was run: as §1

[8] = test system: Klebsiella pneumoniae No. 42; experiment: MIC against standard strains (Test Example 1); assay type: cell-based; conditions: Muller-Hinton agar, 37°C overnight
How it was run: as §1

[9] = test system: Micrococcus luteus ATCC 9341; experiment: MIC against standard strains (Test Example 1); assay type: cell-based; conditions: ATCC9341, Muller-Hinton agar, 37°C overnight
How it was run: as §1

[10] = test system: Morganella morganii IFO 3848; experiment: MIC against standard strains (Test Example 1); assay type: cell-based; conditions: IFO3848, Muller-Hinton agar, 37°C overnight
How it was run: as §1

[11] = test system: Proteus mirabilis IFO 3849; experiment: MIC against standard strains (Test Example 1); assay type: cell-based; conditions: IFO3849, Muller-Hinton agar, 37°C overnight
How it was run: as §1

Proteus vulgalis OX-19 = experiment: MIC against standard strains (Test Example 1); assay type: cell-based; conditions: Muller-Hinton agar, 37°C overnight
How it was run: as §1

[12] = test system: Pseudomonas aeruginosa NCTC 10490; experiment: MIC against standard strains (Test Example 1); assay type: cell-based; conditions: NCTC10490, Muller-Hinton agar, 37°C overnight
How it was run: as §1

[13] = test system: Psuedomonas aeruginosa IFO 3445; experiment: MIC against standard strains (Test Example 1); assay type: cell-based; conditions: Muller-Hinton agar, 37°C overnight
How it was run: as §1

[14] = test system: Serratia marcescens IAM 1184; experiment: MIC against standard strains (Test Example 1); assay type: cell-based; conditions: IAM1184, Muller-Hinton agar, 37°C overnight
How it was run: as §1

[15] = test system: Staphylococcus aureus 167; experiment: MIC against standard strains (Test Example 1); assay type: cell-based; conditions: Staphylococcus aureus 167 (MRSA); Muller-Hinton agar, 37°C overnight
How it was run: as §1

[16] = test system: Staphylococcus aureus 195; experiment: MIC against standard strains (Test Example 1); assay type: cell-based; conditions: Staphylococcus aureus 195 (MRSA); Muller-Hinton agar, 37°C overnight
How it was run: as §1

[17] = test system: Staphylococcus aureus 209P JC-1; experiment: MIC against standard strains (Test Example 1); assay type: cell-based; conditions: Muller-Hinton agar, 37°C overnight
How it was run: as §1

[18] = test system: Staphylococcus aureus Smith; experiment: MIC against standard strains (Test Example 1); assay type: cell-based; conditions: Muller-Hinton agar, 37°C overnight
How it was run: as §1

[19] = test system: Staphylococcus epidermidis IAM 1296; experiment: MIC against standard strains (Test Example 1); assay type: cell-based; conditions: IAM1296, Muller-Hinton agar, 37°C overnight
How it was run: as §1

clinically isolated MRSA = experiment: Antibacterial potency against clinically isolated MRSA (Test Example 2); assay type: cell-based, methicillin-resistant Staphylococcus aureus; conditions: Staphylococcus aureus, 52 strains of clinically isolated MRSA
How it was run: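 MIC measured against 52 clinical MRSA strains by the Japan Chemotherapical Society standard method. MIC50 and MIC90 (µg/ml) are the concentrations inhibiting growth of 50% and 90% of strains.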

A. calcoaceticos T59 = experiment: MIC against standard strains (Test Example 3); assay type: cell-based; conditions: A. calcoaceticos T59 (Test Example 3); read-out: MIC
How it was run: (§3)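 Read-out is the minimum concentration preventing visible bacterial growth on drug-containing Mueller-Hinton agar after overnight incubation at 37°C. Inocula were bacterial suspensions at 1 x 10^6 CFU/ml prepared from overnight Mueller-Hinton broth cultures at 37°C.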

A. faecalis ATCC3750 = experiment: MIC against standard strains (Test Example 3); assay type: cell-based; conditions: Alcaligenes faecalis; A. faecalis ATCC3750 (Test Example 3); read-out: MIC
How it was run: as §3

B. subtilis ATCC6633 = experiment: MIC against standard strains (Test Example 3); assay type: cell-based; conditions: Bacillus subtilis; B. subtilis ATCC6633 (Test Example 3); read-out: MIC
How it was run: as §3

E. coli NIHJ JC-2 = experiment: MIC against standard strains (Test Example 3); assay type: cell-based; conditions: Escherichia coli, NIHJJC2; E. coli NIHJ JC-2 (Test Example 3); read-out: MIC
How it was run: as §3

K. pneumoniae IFO3317 = experiment: MIC against standard strains (Test Example 3); assay type: cell-based; conditions: Klebsiella pneumoniae; K. pneumoniae IFO3317 (Test Example 3); read-out: MIC
How it was run: as §3

M. Morganii IFO3848 = experiment: MIC against standard strains (Test Example 3); assay type: cell-based; conditions: Morganella morganii; M. Morganii IFO3848 (Test Example 3); read-out: MIC
How it was run: as §3

P. vulugaris OX-19 = experiment: MIC against standard strains (Test Example 3); assay type: cell-based; conditions: P. vulugaris OX-19 (Test Example 3); read-out: MIC
How it was run: as §3

S. aureus 167 = experiment: MIC against standard strains (Test Example 3); assay type: cell-based; conditions: Staphylococcus aureus; S. aureus 167 (MRSA) (Test Example 3); read-out: MIC
How it was run: as §3

S. aureus Smith = experiment: MIC against standard strains (Test Example 3); assay type: cell-based; conditions: Staphylococcus aureus; S. aureus Smith (Test Example 3); read-out: MIC
How it was run: as §3

For `CO[C@@]1(NC(=O)CSC(F)F)C(=O)N2C(C(=O)O)=C(CSc3nnnn3CCO)CO[C@@H]21` [FMOX, flomoxef, reference compound], the MIC [1] was 0.2 µg/mL (≈ 0.403 µM), the MIC [2] was 0.39 µg/mL (≈ 0.786 µM) and the MIC [3] was 25 µg/mL (≈ 50.4 µM). It also gave an MIC [4] of 0.1 µg/mL (≈ 0.201 µM), an MIC [5] of 0.05 µg/mL (≈ 0.101 µM) and an MIC [6] of 0.05 µg/mL (≈ 0.101 µM). It also gave an MIC [7] of 0.05 µg/mL (≈ 0.101 µM), an MIC [8] of 0.1 µg/mL (≈ 0.201 µM) and an MIC [9] of 0.2 µg/mL (≈ 0.403 µM). It also gave an MIC [10] of 0.39 µg/mL (≈ 0.786 µM), an MIC [11] of 0.2 µg/mL (≈ 0.403 µM) and an MIC (Proteus vulgalis OX-19) of 0.39 µg/mL (≈ 0.786 µM). For the same compound, the MIC [12] was greater than 100 µg/mL, the MIC [13] was greater than 100 µg/mL and the MIC [14] was 0.2 µg/mL (≈ 0.403 µM). The MIC [15] was 100 µg/mL (≈ 201 µM), the MIC [16] was 6.25 µg/mL (≈ 12.6 µM) and the MIC [17] was 0.39 µg/mL (≈ 0.786 µM). It also gave an MIC [18] of 0.39 µg/mL (≈ 0.786 µM), an MIC [19] of 0.2 µg/mL (≈ 0.403 µM) and an MIC50 (clinically isolated MRSA; concentration inhibiting growth of 50% of the strains (Test Example 2)) of 8.16 µg/mL (≈ 16.4 µM). For the same compound, the MIC90 (clinically isolated MRSA; concentration inhibiting growth of 90% of the strains (Test Example 2)) was 40.2 µg/mL (≈ 81 µM), the MIC (A. calcoaceticos T59) was 50 µg/mL (≈ 101 µM) and the MIC (A. faecalis ATCC3750) was 0.1 µg/mL (≈ 0.201 µM). For the same compound, the MIC (B. subtilis ATCC6633) was 0.2 µg/mL (≈ 0.403 µM), the MIC (E. coli NIHJ JC-2) was 0.05 µg/mL (≈ 0.101 µM) and the MIC (K. pneumoniae IFO3317) was 0.025 µg/mL (≈ 0.0504 µM). It also gave an MIC (M. Morganii IFO3848) of 0.39 µg/mL (≈ 0.786 µM), an MIC (P. vulugaris OX-19) of 0.39 µg/mL (≈ 0.786 µM) and an MIC (S. aureus 167) of 50 µg/mL (≈ 101 µM). It also gave an MIC (S. aureus Smith) of 0.39 µg/mL (≈ 0.786 µM).
